Assay results: the supplement of paper PMC10627819

How the values were obtained:
B. subtilis 168 [1] = assay: fitness (endpoint OD595 vs no drug) (fraction); higher = more growth
Summary of the method: (§1)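 At 37 °C, bacteria in TSB, LB Lennox or CY were grown in 384-well plates from a starting OD595 of 0.01. OD595 was measured every 30 min for 14 h, with the first reading used as background. Fitness is the optical density at the switch to stationary phase as a fraction of the robust mean of no-drug control wells, capped at 1.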

S. aureus DSM 20231 [2] = assay: as above
Summary of the method: as §1

S. pneumoniae D39V [3] = assay: as above
Summary of the method: as §1

B. subtilis 168 [4] = assay: Bliss interaction score (quartile over a dose matrix) (fitness difference); higher = more antagonism (negative = synergy)
Summary of the method: (§2)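 Fitness was OD595 at entry into stationary phase divided by the plate's robust no-drug mean and capped at 1; single-drug fitness was inferred from combination data. The Bliss score is observed minus expected (product) fitness, summarised by quartiles over technical, biological and donor/recipient replicates.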

S. aureus DSM 20231 [5] = assay: as above
Summary of the method: as §2

S. aureus Newman = assay: as above
Summary of the method: as §2

S. pneumoniae D39V [6] = assay: as above
Summary of the method: as §2
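For Bliss interaction score (quartile over a dose matrix) in this document: first quartile when negative (synergy) and third quartile when positive (antagonism).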

C[C@@H]1O[C@@H]1P(=O)(O)O [Fosfomycin] + CCC[C@@H]1C[C@@H](C(=O)N[C@@H]([C@H]2O[C@H](SC)[C@H](O)[C@@H](O)[C@H]2O)[C@@H](C)O)N(C)C1 [Lincomycin]
fitness
Conditions	partner 0.1 µg/mL	partner 0.2 µg/mL	partner 0.215 µg/mL	partner 0.4 µg/mL	partner 0.43 µg/mL	partner 0.8 µg/mL	partner 0.86 µg/mL
B. subtilis 168 [1], first compound 1.562 µg/mL	0.689	0.707	–	0.705	–	–	–
B. subtilis 168 [1], first compound 3.124 µg/mL	0.616	0.591	–	0.61	–	–	–
B. subtilis 168 [1], first compound 6.248 µg/mL	0.469	0.429	–	0.476	–	–	–
S. aureus DSM 20231 [2], first compound 0.781 µg/mL	0.645	0.508	–	0.137	–	–	–
S. aureus DSM 20231 [2], first compound 1.562 µg/mL	0.515	0.32	–	0.0482	–	–	–
S. aureus DSM 20231 [2], first compound 3.124 µg/mL	0.387	0.0895	–	0.0388	–	–	–
S. pneumoniae D39V [3], first compound 1.25 µg/mL	–	0.606	0.812	0.365	0.698	0.0632	0.499
S. pneumoniae D39V [3], first compound 2.5 µg/mL	–	0.58	0.823	0.317	0.683	0.0611	0.45
S. pneumoniae D39V [3], first compound 5 µg/mL	–	0.511	0.785	0.285	0.691	0.0462	0.394

fitness, B. subtilis 168 [1], one replicate
Conditions	first compound 1.562 µg/mL	first compound 3.124 µg/mL	first compound 6.248 µg/mL
partner 0.8 µg/mL	0.719	0.572	0.466
partner 1.6 µg/mL	0.695	0.537	0.436

Conditions	Bliss interaction score
B. subtilis 168 [4]	0.0718
S. aureus DSM 20231 [5]	-0.158
S. aureus Newman	-0.31
S. pneumoniae D39V [6]	0.0737

COc1ccc(C[C@H](N)C(=O)N[C@H]2[C@@H](O)[C@H](n3cnc4c(N(C)C)ncnc43)O[C@@H]2CO)cc1 [Puromycin] + COc1cc(Cc2cnc(N)nc2N)cc(OC)c1OC [Trimethoprim]
fitness, one replicate
Conditions	first compound 0.39 µg/mL	first compound 0.78 µg/mL	first compound 1.56 µg/mL	first compound 3.12 µg/mL	first compound 6.24 µg/mL
B. subtilis 168 [1], partner 0.1 µg/mL	0.818	0.875	0.962	–	–
B. subtilis 168 [1], partner 0.125 µg/mL	0.756	0.748	0.77	–	–
B. subtilis 168 [1], partner 0.2 µg/mL	0.814	0.85	0.831	–	–
B. subtilis 168 [1], partner 0.4 µg/mL	0.562	0.581	0.575	–	–
B. subtilis 168 [1], partner 1 µg/mL	0.332	0.342	0.365	–	–
B. subtilis 168 [1], partner 2 µg/mL	0.326	0.29	0.235	–	–
S. aureus DSM 20231 [2], partner 0.125 µg/mL	0.804	0.921	–	0.908	0.596
S. aureus DSM 20231 [2], partner 0.25 µg/mL	–	–	–	0.812	0.631
S. aureus DSM 20231 [2], partner 0.5 µg/mL	–	–	–	0.48	0.613

fitness
Conditions	first compound 0.39 µg/mL	first compound 0.78 µg/mL	first compound 1.56 µg/mL
B. subtilis 168 [1], partner 0.25 µg/mL	0.695	0.738	0.71
B. subtilis 168 [1], partner 0.5 µg/mL	0.492	0.481	0.514
S. aureus DSM 20231 [2], partner 0.125 µg/mL	–	–	0.876
S. aureus DSM 20231 [2], partner 0.25 µg/mL	0.605	0.639	0.682
S. aureus DSM 20231 [2], partner 0.5 µg/mL	0.164	–	0.222
S. aureus DSM 20231 [2], partner 1 µg/mL	0.0431	0.0497	0.0562

Conditions	Bliss interaction score
B. subtilis 168 [4]	0.0908
S. aureus DSM 20231 [5]	0.113
S. aureus Newman	0.0927
S. pneumoniae D39V [6]	-0.203

COc1cccc2c1C(=O)c1c(O)c3c(c(O)c1C2=O)C[C@@](O)(C(=O)CO)C[C@@H]3O[C@H]1C[C@H](N)[C@H](O)[C@H](C)O1 [Doxorubicin] + CCC[C@@H]1C[C@@H](C(=O)N[C@@H]([C@H]2O[C@H](SC)[C@H](O)[C@@H](O)[C@H]2O)[C@@H](C)O)N(C)C1 [Lincomycin]
fitness
Conditions	partner 0.1 µg/mL	partner 0.2 µg/mL	partner 0.215 µg/mL	partner 0.4 µg/mL	partner 0.43 µg/mL	partner 0.8 µg/mL	partner 0.86 µg/mL
B. subtilis 168 [1], first compound 0.625 µg/mL	0.903	0.882	–	0.914	–	–	–
B. subtilis 168 [1], first compound 1.25 µg/mL	0.878	0.857	–	0.88	–	–	–
B. subtilis 168 [1], first compound 2.5 µg/mL	0.726	0.668	–	0.65	–	–	–
S. aureus DSM 20231 [2], first compound 0.625 µg/mL	0.816	0.757	–	–	–	–	–
S. aureus DSM 20231 [2], first compound 1.25 µg/mL	0.853	0.835	–	–	–	–	–
S. aureus DSM 20231 [2], first compound 2.5 µg/mL	0.875	0.73	–	–	–	–	–
S. pneumoniae D39V [3], first compound 0.25 µg/mL	–	0.57	0.75	0.337	0.626	0.0441	0.427
S. pneumoniae D39V [3], first compound 0.5 µg/mL	–	0.558	0.744	0.325	0.67	0.0345	0.372
S. pneumoniae D39V [3], first compound 1 µg/mL	–	0.465	0.792	0.278	0.664	0.0189	0.307

fitness, B. subtilis 168 [1], one replicate
Conditions	first compound 0.625 µg/mL	first compound 1.25 µg/mL	first compound 2.5 µg/mL
partner 0.8 µg/mL	0.959	0.831	0.638
partner 1.6 µg/mL	0.914	0.89	0.684

Conditions	Bliss interaction score
B. subtilis 168 [4]	0.0938
S. aureus DSM 20231 [5]	0.167
S. aureus Newman	0.164
S. pneumoniae D39V [6]	-0.0622

C[C@@H]1O[C@@H]1P(=O)(O)O [Fosfomycin] + COc1cc(Cc2cnc(N)nc2N)cc(OC)c1OC [Trimethoprim]
fitness, B. subtilis 168 [1], one replicate
Conditions	partner 0.1 µg/mL	partner 0.2 µg/mL	partner 0.4 µg/mL	partner 1 µg/mL	partner 2 µg/mL
first compound 1.562 µg/mL	0.649	0.564	0.397	0.17	0.119
first compound 3.124 µg/mL	0.497	0.35	0.18	0.0628	0.0617
first compound 6.248 µg/mL	0.209	0.101	0.0381	0.0277	0.0228

fitness
Conditions	partner 0.125 µg/mL	partner 0.25 µg/mL	partner 0.5 µg/mL	partner 1 µg/mL
B. subtilis 168 [1], first compound 1.562 µg/mL	0.572	0.405	0.35	–
B. subtilis 168 [1], first compound 3.124 µg/mL	0.447	0.369	0.218	–
B. subtilis 168 [1], first compound 6.248 µg/mL	0.307	0.236	0.0904	–
S. aureus DSM 20231 [2], first compound 0.781 µg/mL	0.592	0.56	0.182	0.0323
S. aureus DSM 20231 [2], first compound 1.562 µg/mL	0.56	0.484	0.106	0.0286
S. aureus DSM 20231 [2], first compound 3.124 µg/mL	0.499	0.327	0.0645	0.0282

Conditions	Bliss interaction score
B. subtilis 168 [4]	-0.112
S. aureus DSM 20231 [5]	0.0599
S. aureus Newman	0.0927
S. pneumoniae D39V [6]	0.158
